Values of other authors, collected in US11691145B2, “Platform and method for multi-variable screening” (Wisconsin Alumni Research Foundation, priority 2018, dated 2023).

Tested on: bacterial pathogens (infection)
Details: phase 3 clinical trial

Compound: CO/N=C(\C(=O)N[C@@H]1C(=O)N2C(C(=O)O)=C(COC(C)=O)CS[C@H]12)c1csc(N)n1 [cefotaxime]
- patients who responded to the antibiotic therapy (patients with a "resistant" antibiotic sensitivity test result): 64%
- patients who would respond to the antibiotic therapy (patients with a "sensitive" antibiotic sensitivity test result, best case scenario): 93%
